Source: patent US8785429B2, “Dihydropyrrolonaphthyridinone compounds as inhibitors of JAK” (Takeda Pharmaceutical Company Limited, priority 2009, dated 2014)

Columns and labels:
[1] = target: T1, JAK2 (Homo sapiens, UniProt O60674); assay: Assay for JAK2 Inhibition (phosphorylation of FAM-labeled substrate, Caliper LC-3000); format: biochemical; settings: −log10(IC50), IC50 is the molar concentration at 50% inhibition; read-out: JAK2 pIC50 (converted)
T1 construct: purchased Invitrogen
Method: (§1) A compound's ability to inhibit JAK activity may be assessed using a variety of methods, including in vitro and in vivo assays. The following in vitro assays measure a test compound's ability to inhibit JAK2- and JAK3-mediated phosphorylation of FAM-labeled JAK-specific substrates.
(§2) Purified JAK2 and JAK3 proteins were purchased from Invitrogen. JAK2 and JAK3 inhibition is determined using a black 384-well-plate format in buffer containing 50 mM HEPES, 10 mM NaCl, 10 mM MgCl2, 0.2 mM EDTA, 0.01% EDA (Brij® 35), 1 mM DTT, 0.1 mg/mL BSA at pH 7.3. Each test compound is prepared in DMSO using 2-fold serial dilutions for 11 data points and is added to the buffer so that each dilution contains 3% DMSO.
(§3) To each well is added 2 μL of 3 μM 5FAM-KKKKEEIYFFFG-NH2 and 45 μM ATP (in buffer), 2 μL of diluted test compound (3% DMSO in medium), and 2 μL of 0.6 nM JAK2 in buffer. The reaction mixture is incubated at room temperature for 60 min and is quenched by adding 50 mM HEPeX, 30 mM EDTA, and 0.1% Tx-100 (pH 7.3). To quantify the fluorescent-labeled substrate and product following reaction, the test plate is loaded on a Caliper LC-3000, which measures percent of conversion by microfluidic-based separation.
(§4) Corresponding IC50 values are calculated by non-linear curve fitting of the compound concentrations and percent of inhibition to the standard IC50 equation.

[2] = target: T2, JAK3 (Homo sapiens, UniProt P52333); assay: Assay for JAK3 Inhibition (phosphorylation of FAM-labeled substrate, Caliper LC-3000); format: biochemical; settings: −log10(IC50), IC50 is the molar concentration at 50% inhibition; read-out: JAK3 pIC50 (converted)
T2 construct: purchased Invitrogen
T2 sequence (P52333 1-1124): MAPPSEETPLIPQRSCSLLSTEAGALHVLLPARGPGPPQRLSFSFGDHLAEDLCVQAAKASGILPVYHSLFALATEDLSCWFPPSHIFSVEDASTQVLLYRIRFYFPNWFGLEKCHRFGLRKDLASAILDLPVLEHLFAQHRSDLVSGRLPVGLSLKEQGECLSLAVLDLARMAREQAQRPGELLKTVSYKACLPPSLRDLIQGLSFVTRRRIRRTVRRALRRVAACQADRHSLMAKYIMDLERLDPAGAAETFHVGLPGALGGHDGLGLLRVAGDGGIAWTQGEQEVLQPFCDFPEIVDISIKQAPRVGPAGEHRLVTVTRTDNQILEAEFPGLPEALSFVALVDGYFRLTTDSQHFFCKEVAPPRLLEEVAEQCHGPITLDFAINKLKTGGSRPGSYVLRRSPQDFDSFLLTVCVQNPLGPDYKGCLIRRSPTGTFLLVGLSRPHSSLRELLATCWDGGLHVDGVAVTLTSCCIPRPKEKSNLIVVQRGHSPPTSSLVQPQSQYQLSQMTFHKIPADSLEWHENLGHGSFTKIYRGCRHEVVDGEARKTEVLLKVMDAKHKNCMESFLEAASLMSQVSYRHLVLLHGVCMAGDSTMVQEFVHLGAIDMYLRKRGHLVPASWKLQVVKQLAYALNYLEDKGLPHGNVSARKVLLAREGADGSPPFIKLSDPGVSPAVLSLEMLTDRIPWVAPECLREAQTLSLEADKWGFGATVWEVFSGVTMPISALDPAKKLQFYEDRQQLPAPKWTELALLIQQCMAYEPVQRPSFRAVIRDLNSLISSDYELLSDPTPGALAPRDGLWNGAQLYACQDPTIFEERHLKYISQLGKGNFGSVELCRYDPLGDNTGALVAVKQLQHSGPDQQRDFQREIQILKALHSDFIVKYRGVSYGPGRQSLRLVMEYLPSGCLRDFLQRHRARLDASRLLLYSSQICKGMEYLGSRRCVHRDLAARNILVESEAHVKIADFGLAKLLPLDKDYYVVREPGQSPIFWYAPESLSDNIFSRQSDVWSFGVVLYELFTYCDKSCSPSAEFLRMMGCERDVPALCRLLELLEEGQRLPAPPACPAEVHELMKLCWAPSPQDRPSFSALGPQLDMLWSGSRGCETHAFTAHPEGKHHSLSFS
Method: as §1, §2
as §3, with “15” for “45”, “1.2” for “0.6”, “JAK3” for “JAK2”, “HEPES,” for “HEPeX,”
as §4

T1 sequence (O60674 whole entry): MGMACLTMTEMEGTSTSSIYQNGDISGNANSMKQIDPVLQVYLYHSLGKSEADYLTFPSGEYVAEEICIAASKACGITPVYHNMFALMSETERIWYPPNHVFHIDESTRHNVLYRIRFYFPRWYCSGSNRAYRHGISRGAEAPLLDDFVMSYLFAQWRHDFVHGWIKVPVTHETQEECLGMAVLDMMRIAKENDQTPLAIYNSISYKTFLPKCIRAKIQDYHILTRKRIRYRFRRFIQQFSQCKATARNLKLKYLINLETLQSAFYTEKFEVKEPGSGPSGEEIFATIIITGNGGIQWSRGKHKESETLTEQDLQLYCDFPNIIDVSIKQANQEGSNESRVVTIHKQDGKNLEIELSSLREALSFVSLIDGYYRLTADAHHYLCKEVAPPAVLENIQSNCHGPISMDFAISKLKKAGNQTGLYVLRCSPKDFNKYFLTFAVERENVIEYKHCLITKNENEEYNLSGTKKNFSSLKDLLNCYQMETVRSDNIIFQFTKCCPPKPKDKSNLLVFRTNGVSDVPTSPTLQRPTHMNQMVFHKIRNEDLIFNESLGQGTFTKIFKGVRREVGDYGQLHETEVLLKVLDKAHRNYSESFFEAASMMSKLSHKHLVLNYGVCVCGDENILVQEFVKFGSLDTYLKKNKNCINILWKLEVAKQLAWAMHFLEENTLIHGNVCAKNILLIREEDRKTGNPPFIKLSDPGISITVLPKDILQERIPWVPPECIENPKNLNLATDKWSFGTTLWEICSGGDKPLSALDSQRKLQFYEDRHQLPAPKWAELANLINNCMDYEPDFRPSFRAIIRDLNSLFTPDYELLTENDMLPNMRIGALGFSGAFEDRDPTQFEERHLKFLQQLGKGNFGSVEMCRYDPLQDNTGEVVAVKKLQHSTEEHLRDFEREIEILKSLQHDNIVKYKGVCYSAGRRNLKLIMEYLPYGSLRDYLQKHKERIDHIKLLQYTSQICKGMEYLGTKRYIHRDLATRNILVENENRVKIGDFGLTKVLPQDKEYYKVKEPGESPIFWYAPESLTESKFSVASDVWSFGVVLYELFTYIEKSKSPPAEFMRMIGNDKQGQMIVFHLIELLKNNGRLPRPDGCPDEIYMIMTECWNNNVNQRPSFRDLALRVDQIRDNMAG

Row | Compound | IC50 [1] [nM] | IC50 [2] [nM]
1 | CC(C)[C@H](C(=O)N1CC(C#N)(CF)C1)N1Cc2ccnc3[nH]cc(c23)C1=O [Example 51, (R)-3-(fluoromethyl)-1-(3-methyl-2-(3-oxopyrrolo[4,3,2-de][2,6]naphthyridin-4(1H,3H,5H)-yl)butanoyl)azetidine-3-carbonitrile] | 158 | 5.01
2 | O=C(NC1CCCC1)[C@@H](C1CCCC1)N1Cc2ccnc3[nH]cc(c23)C1=O [Example 27, (R)—N,2-dicyclopentyl-2-(3-oxopyrrolo[4,3,2-de][2,6]naphthyridin-4(1H,3H,5H)-yl)acetamide] | 3160 | 251
3 | CC(C)[C@H](C(=O)N1CCC[C@H]1C#N)N1Cc2c(Cl)cnc3[nH]cc(c23)C1=O [Example 84, (S)-1-((R)-2-(6-chloro-3-oxopyrrolo[4,3,2-de][2,6]naphthyridin-4(1H,3H,5H)-yl)-3-methylbutanoyl)pyrrolidine-2-carbonitrile] | 3160 | 200
4 | CC[C@H](C(=O)NCC(C)(C)O)N1Cc2ccnc3[nH]cc(c23)C1=O [Example 70, (R)—N-(2-hydroxy-2-methylpropyl)-2-(3-oxopyrrolo[4,3,2-de][2,6]naphthyridin-4(1H,3H,5H)-yl)butanamide] | 10000 | 501
5 | CC[C@@H](C(=O)N1CCCC1)N1Cc2ccnc3[nH]cc(c23)C1=O [Example 18, (S)-4-(1-oxo-1-(pyrrolidin-1-yl)butan-2-yl)-4,5-dihydropyrrolo[4,3,2-de][2,6]naphthyridin-3(1H)-one] | 20000 | 20000
6 | CC(C)[C@H](C(=O)N1CCS(=O)(=O)C1)N1Cc2c(F)cnc3[nH]cc(c23)C1=O [Example 77, (R)-4-(1-(1,1-dioxidothiazolidin-3-yl)-3-methyl-1-oxobutan-2-yl)-6-fluoro-4,5-dihydropyrrolo[4,3,2-de][2,6]naphthyridin-3(1H)-one] | 1580 | 63.1
7 | CC(C)[C@H](C(=O)NC1CCCC1)N1Cc2ccnc3[nH]cc(c23)C1=O [Example 22, (R)—N-cyclopentyl-3-methyl-2-(3-oxopyrrolo[4,3,2-de][2,6]naphthyridin-4(1H,3H,5H)-yl)butanamide] | 631 | 31.6
8 | CC[C@@H](C)[C@H](C(=O)NC1CCCC1)N1Cc2ccnc3[nH]cc(c23)C1=O [Example 23, (2R,3R)—N-cyclopentyl-3-methyl-2-(3-oxopyrrolo[4,3,2-de][2,6]naphthyridin-4(1H,3H,5H)-yl)pentanamide] | 3980 | 398
9 | CC(C)(C)[C@H](C(=O)NCC#N)N1Cc2ccnc3[nH]cc(c23)C1=O [Example 83, (R)—N-(cyanomethyl)-3,3-dimethyl-2-(3-oxopyrrolo[4,3,2-de][2,6]naphthyridin-4(1H,3H,5H)-yl)butanamide] | 251 | 12.6
10 | CC[C@H](C(=O)NC[C@H](O)CO)N1Cc2ccnc3[nH]cc(c23)C1=O [Example 71, (R)—N—((S)-2,3-dihydroxypropyl)-2-(3-oxopyrrolo[4,3,2-de][2,6]naphthyridin-4(1H,3H,5H)-yl)butanamide] | 5010 | 794
11 | CC[C@H](C(=O)N1CCCC(C)C1)N1Cc2ccnc3[nH]cc(c23)C1=O (stereo partly drawn) [Example 61, 4-((2R)-1-(3-methylpiperidin-1-yl)-1-oxobutan-2-yl)-4,5-dihydropyrrolo[4,3,2-de][2,6]naphthyridin-3(1 H)-one] | 20000 | 6310
12 | CCC1(N2Cc3c[nH]c4nccc(c34)C2=O)CCN(C(=O)CC#N)CC1 [Example 9, 3-(4-ethyl-4-(5-oxopyrrolo[4,3,2-de][2,6]naphthyridin-4(1H,3H,5H)-yl)piperidin-1-yl)-3-oxopropanenitrile] | 20 | 10
13 | Cc1cnc2[nH]cc3c2c1CN([C@@H](C(=O)N1CC(C#N)C1)C(C)C)C3=O [Example 88, (R)-1-(3-methyl-2-(6-methyl-3-oxopyrrolo[4,3,2-de][2,6]naphthyridin-4(1H,3H,5H)-yl)butanoyl)azetidine-3-carbonitrile] | 25.1 | 1.58
14 | CC[C@H](C(=O)Nc1ccccc1)N1Cc2ccnc3[nH]cc(c23)C1=O [Example 72, (R)-2-(3-oxopyrrolo[4,3,2-de][2,6]naphthyridin-4(1H,3H,5H)-yl)-N-phenylbutanamide] | 2000 | 126
15 | CC(C)(C)[C@H](C(=O)N1CC(C#N)C1)N1Cc2c(Cl)cnc3[nH]cc(c23)C1=O [Example 41, (R)-1-(2-(6-chloro-3-oxopyrrolo[4,3,2-de][2,6]naphthyridin-4(1H,3H,5H)-yl)-3,3-dimethylbutanoyl)azetidine-3-carbonitrile] | 50.1 | 3.98
16 | O=C1c2ccnc3[nH]cc(c23)CN1C1CCNCC1 [Example 2, 4-(piperidin-4-yl)-3,4-dihydropyrrolo[4,3,2-de][2,6]naphthyridin-5(1H)-one] | 6310 | 3980
17 | CC(C)[C@H](C(=O)N1CC(C#N)C1)N1Cc2c(Cl)cnc3[nH]cc(c23)C1=O [Example 39, (R)-1-(2-(6-chloro-3-oxopyrrolo[4,3,2-de][2,6]naphthyridin-4(1H,3H,5H)-yl)-3-methylbutanoyl)azetidine-3-carbonitrile] | 31.6 | 2
18 | CC[C@H](C(=O)NC1CCN(S(C)(=O)=O)CC1)N1Cc2ccnc3[nH]cc(c23)C1=O [Example 73, (R)—N-(1-(methylsulfonyl)piperidin-4-yl)-2-(3-oxopyrrolo[4,3,2-de][2,6]naphthyridin-4(1H,3H,5H)-yl)butanamide] | 3160 | 158
19 | CC[C@H](C(=O)NCC(C)C)N1Cc2ccnc3[nH]cc(c23)C1=O [Example 67, (R)—N-isobutyl-2-(3-oxopyrrolo[4,3,2-de][2,6]naphthyridin-4(1H,3H,5H)-yl)butanamide] | 5010 | 251
20 | CC[C@H](C(=O)N1CCC(C(C)(C)O)CC1)N1Cc2ccnc3[nH]cc(c23)C1=O [Example 62, (R)-4-(1-(4-(2-hydroxypropan-2-yl)piperidin-1-yl)-1-oxobutan-2-yl)-4,5-dihydropyrrolo[4,3,2-de][2,6]naphthyridin-3(1 H)-one] | 12600 | 1580
21 | CC(C)[C@H](C(=O)NC1CCC(F)(F)C1)N1Cc2c(F)cnc3[nH]cc(c23)C1=O (stereo partly drawn) [Example 50, (2R)—N-(3,3-difluorocyclopentyl)-2-(6-fluoro-3-oxopyrrolo[4,3,2-de][2,6]naphthyridin-4(1H,3H,5H)-yl)-3-methylbutanamide] | 1580 | 79.4
22 | CC(C)[C@H](C(=O)N1CC(C(F)F)C1)N1Cc2c(F)cnc3[nH]cc(c23)C1=O [Example 80, (R)-4-(1-(3-(difluoromethyl)azetidin-1-yl)-3-methyl-1-oxobutan-2-yl)-6-fluoro-4,5-dihydropyrrolo[4,3,2-de][2,6]naphthyridin-3(1H)-one] | 398 | 15.8
